Test results as given in paper PMC7397269, “Synthesis and Evaluation of New Coumarin Derivatives as Antioxidant, Antimicrobial, and Anti-Inflammatory Agents” (Molecules, 2020).
≈ marks a conversion by molar mass, not a printed value.

Key:
[1] = tested on: Staphylococcus aureus ATCC 29213; experiment: MIC, two-fold serial dilution, S. aureus; format: cell-based; conditions: ATCC29213, read-out: Minimum inhibitory concentration, SA
In short: (§1)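 Compounds with agar-well inhibition zone >16 mm went on to two-fold broth dilution at final 1000, 500, 250 and 125 μg/mL. Inocula were 1×10^8 CFU/mL for bacteria and 1×10^6 CFU/mL for yeast (0.1 mL per 5 mL), incubated 37 °C for 24 h. MIC taken as the lowest concentration with no growth.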

[2] = tested on: Saccharomyces cerevisiae local isolate; experiment: Agar well diffusion, S. cerevisiae; format: cell-based; conditions: well diffusion, 100 μL of 10 mg/mL in DMSO, S. cerevisiae, read-out: diameter of inhibition zone, SC
In short: (§2)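 Values are mean inhibition zone diameters (mm) from triplicate plates incubated 24 h at 37 °C. Wells 10 mm wide held 100 μL of compound at 10 mg/mL in DMSO.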

[3] = tested on: Escherichia coli ATCC 2592; experiment: Agar well diffusion, E. coli; format: cell-based; conditions: ATCC2592, 100 μL of 10 mg/mL in DMSO, read-out: diameter of inhibition zone, EC
In short: as §2

tested microorganisms = experiment: MIC, summary over the tested microorganisms; format: cell-based; conditions: two-fold serial dilution; read-out: MIC against one or more tested microorganisms
In short: as §1

[4] = tested on: Candida albicans NRRL Y-477; experiment: Agar well diffusion, C. albicans; format: cell-based; conditions: NRRLY477, 100 μL of 10 mg/mL in DMSO, read-out: diameter of inhibition zone, CA
In short: as §2

[5] = tested on: formaldehyde-induced rat paw oedema; experiment: Formaldehyde-induced rat paw oedema (prophylactic); format: in vivo; conditions: 2.5 mg/kg orally, 1 h after inducing inflammation
[6] = tested on: Bacillus megaterium ATCC 9885; experiment: MIC, two-fold serial dilution, B. megaterium; format: cell-based; conditions: Priestia megaterium, ATCC9885, read-out: Minimum inhibitory concentration, BM
In short: as §1

[7] = DPPH antioxidant assay (radical scavenging); format: biochemical; conditions: mean ± SD (n = 3)
In short: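 Compounds, starting at 200 μg/mL, were mixed with 0.2 mM methanolic DPPH and incubated 30 min in the dark at 25 °C; absorbance was read at 515 nm. % inhibition is background-corrected against DPPH-only control, with IC50 from curve fit. Runs were triplicate (mean ± SD), with ascorbic acid as positive control.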

[8] = tested on: Pseudomonas aeruginosa ATCC 27,953; experiment: Agar well diffusion, P. aeruginosa; format: cell-based; conditions: ATCC27, 100 μL of 10 mg/mL in DMSO, read-out: diameter of inhibition zone, PA
In short: as §2

[9] = tested on: Escherichia coli ATCC 2592; experiment: MIC, two-fold serial dilution, E. coli; format: cell-based; conditions: ATCC2592, read-out: Minimum inhibitory concentration, EC
In short: as §1

[10] = tested on: Saccharomyces cerevisiae local isolate; experiment: MIC, two-fold serial dilution, S. cerevisiae; format: cell-based; conditions: two-fold serial dilution, S. cerevisiae, read-out: Minimum inhibitory concentration, SC
In short: as §1

[11] = tested on: Candida albicans NRRL Y-477; experiment: MIC, two-fold serial dilution, C. albicans; format: cell-based; conditions: NRRLY477, read-out: Minimum inhibitory concentration, CA
In short: as §1

For `O=c1oc2ccc(Cl)cc2c(O)c1S(=O)(=O)Nc1ccc(O)cc1` [8c, 6-Chloro-4-hydroxy-N-(4-hydroxyphenyl)-2-oxo-2H-chromene-3-sulfonamide], the MIC [1] was 125 µg/mL (≈ 340 µM), the zone of inhibition at 10000 µg/mL [2] was 31 to 32 mm and the zone of inhibition at 10000 µg/mL [3] was 27 mm. For the same molecule, the MIC (tested microorganisms) was 125 µg/mL (≈ 340 µM), the zone of inhibition at 10000 µg/mL [4] was 30 mm and the “% inhibition of paw oedema” value [5] was 9.45%. It also gave an MIC [6] of 250 µg/mL (≈ 680 µM), a melting point of 250 to 251 °C and an IC50 [7] of 3.87 ± 0.409 µg/mL (≈ 10.5 µM). It also gave a zone of inhibition at 10000 µg/mL [8] of 29 mm, an MIC [9] of 250 µg/mL (≈ 680 µM) and an MIC [10] of 125 µg/mL (≈ 340 µM). The MIC [11] was 125 µg/mL (≈ 340 µM).
